Read-outs that look alike come from different tables or passages of the source.
How the values were obtained:
Experiment in all cases: biochemical
Assay type in all cases: biochemical
[1] = target: T1, 363 human kinases (including Aurora A/B/C) (Homo sapiens, UniProt Q86YV6); conditions: MYLK4; for remaining activity at 0.1 µM: 100 nM; for remaining activity at 0.1 µM / remaining activity at 0.5 µM: read-out: % Enzyme Activity (relative to DMSO controls)
T1 sequence (Q86YV6 1-388): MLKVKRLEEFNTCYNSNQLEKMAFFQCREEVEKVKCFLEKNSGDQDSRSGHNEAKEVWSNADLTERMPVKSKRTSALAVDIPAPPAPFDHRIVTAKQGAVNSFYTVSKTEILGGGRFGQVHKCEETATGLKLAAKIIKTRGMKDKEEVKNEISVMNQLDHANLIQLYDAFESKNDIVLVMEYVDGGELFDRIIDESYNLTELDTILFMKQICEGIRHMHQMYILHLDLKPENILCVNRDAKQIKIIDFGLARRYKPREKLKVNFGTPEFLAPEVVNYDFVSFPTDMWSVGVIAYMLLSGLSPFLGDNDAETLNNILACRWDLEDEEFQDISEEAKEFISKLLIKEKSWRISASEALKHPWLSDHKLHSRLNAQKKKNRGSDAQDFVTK
Source text: (§1) However, the Aurora A/B selectivity ratios derived from our in vitro and in vivo data can be compared to prioritize inhibitors.

[2] = target: 363 human kinases (including Aurora A/B/C) (Homo sapiens, UniProt P08069); conditions: IGF1R; for remaining activity at 0.1 µM: 100 nM; for remaining activity at 0.1 µM / remaining activity at 0.5 µM: read-out: % Enzyme Activity (relative to DMSO controls)
Sequence of 363 human kinases (including Aurora A/B/C) (Homo sapiens, UniProt P08069) (P08069 31-1367): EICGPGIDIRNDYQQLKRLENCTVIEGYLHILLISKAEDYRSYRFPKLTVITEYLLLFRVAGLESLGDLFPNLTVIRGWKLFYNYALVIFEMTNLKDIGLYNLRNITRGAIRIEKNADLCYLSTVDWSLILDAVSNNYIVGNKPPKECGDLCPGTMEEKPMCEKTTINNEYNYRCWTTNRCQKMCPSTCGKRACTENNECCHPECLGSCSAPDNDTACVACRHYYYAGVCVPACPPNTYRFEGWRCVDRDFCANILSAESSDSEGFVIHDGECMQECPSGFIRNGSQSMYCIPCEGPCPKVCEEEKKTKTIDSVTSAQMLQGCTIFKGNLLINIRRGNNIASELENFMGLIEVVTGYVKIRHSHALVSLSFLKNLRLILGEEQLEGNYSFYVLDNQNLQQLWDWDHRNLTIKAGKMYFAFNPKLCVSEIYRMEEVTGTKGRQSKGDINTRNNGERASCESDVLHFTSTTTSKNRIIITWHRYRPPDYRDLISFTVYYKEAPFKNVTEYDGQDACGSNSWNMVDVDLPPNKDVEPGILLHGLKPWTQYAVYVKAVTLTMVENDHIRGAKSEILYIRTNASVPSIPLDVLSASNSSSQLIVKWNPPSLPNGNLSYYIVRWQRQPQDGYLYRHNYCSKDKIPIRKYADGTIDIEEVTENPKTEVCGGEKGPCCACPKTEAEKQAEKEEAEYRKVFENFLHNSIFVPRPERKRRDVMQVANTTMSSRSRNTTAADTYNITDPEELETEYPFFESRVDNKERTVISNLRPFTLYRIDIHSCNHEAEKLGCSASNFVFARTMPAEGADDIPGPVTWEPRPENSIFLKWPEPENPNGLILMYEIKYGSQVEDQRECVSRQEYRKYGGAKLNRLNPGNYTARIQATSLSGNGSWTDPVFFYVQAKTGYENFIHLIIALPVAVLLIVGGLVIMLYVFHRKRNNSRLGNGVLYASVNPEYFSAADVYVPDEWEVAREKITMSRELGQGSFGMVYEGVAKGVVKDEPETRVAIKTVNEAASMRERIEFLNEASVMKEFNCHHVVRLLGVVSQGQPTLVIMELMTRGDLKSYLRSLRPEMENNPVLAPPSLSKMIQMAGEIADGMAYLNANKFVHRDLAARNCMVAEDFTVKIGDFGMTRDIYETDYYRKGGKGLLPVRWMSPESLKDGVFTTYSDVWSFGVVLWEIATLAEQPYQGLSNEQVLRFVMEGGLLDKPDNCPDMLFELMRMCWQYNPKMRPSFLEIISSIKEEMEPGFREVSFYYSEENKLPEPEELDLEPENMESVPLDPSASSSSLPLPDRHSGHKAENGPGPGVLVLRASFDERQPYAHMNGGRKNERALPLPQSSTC
Source text: as §1

[3] = target: 363 human kinases (including Aurora A/B/C) (Homo sapiens, UniProt Q9Y243); conditions: AKT3, [ATP] 50 µM; for remaining activity at 0.1 µM: 100 nM; for remaining activity at 0.1 µM / remaining activity at 0.5 µM: read-out: % Enzyme Activity (relative to DMSO controls)
Sequence of 363 human kinases (including Aurora A/B/C) (Homo sapiens, UniProt Q9Y243) (Q9Y243 whole entry): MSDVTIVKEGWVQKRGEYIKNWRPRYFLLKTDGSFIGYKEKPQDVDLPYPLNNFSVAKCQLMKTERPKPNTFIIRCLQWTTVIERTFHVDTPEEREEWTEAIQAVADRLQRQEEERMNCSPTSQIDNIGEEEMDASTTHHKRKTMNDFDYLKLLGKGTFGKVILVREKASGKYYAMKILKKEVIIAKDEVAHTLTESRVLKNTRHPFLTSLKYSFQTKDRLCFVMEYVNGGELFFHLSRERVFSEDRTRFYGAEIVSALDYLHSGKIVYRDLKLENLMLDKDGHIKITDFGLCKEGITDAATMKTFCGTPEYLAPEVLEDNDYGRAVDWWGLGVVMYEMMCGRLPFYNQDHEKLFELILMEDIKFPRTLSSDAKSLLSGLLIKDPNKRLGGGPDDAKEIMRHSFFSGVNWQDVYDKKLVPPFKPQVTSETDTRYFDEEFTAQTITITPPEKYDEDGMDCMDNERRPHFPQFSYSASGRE
Source text: as §1

[4] = target: 363 human kinases (including Aurora A/B/C) (Homo sapiens, UniProt P34947); conditions: GRK5; for remaining activity at 0.1 µM: 100 nM; for remaining activity at 0.1 µM / remaining activity at 0.5 µM: read-out: % Enzyme Activity (relative to DMSO controls)
Source text: as §1

[5] = target: 363 human kinases (including Aurora A/B/C) (Homo sapiens, UniProt Q9BXA6); conditions: SSTK/TSSK6; for remaining activity at 0.1 µM: 100 nM; for remaining activity at 0.1 µM / remaining activity at 0.5 µM: read-out: % Enzyme Activity (relative to DMSO controls)
Sequence of 363 human kinases (including Aurora A/B/C) (Homo sapiens, UniProt Q9BXA6) (Q9BXA6 whole entry): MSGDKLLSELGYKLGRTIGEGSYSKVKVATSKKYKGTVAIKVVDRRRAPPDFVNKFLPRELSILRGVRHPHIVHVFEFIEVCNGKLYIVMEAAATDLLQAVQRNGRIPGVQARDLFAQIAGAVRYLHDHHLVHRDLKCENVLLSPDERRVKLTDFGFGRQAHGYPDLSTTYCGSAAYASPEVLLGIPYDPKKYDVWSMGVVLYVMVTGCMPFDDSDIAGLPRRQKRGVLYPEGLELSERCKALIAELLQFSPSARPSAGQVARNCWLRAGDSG
Source text: as §1

[6] = target: 363 human kinases (including Aurora A/B/C) (Homo sapiens, UniProt Q76MJ5); conditions: ERN2/IRE2, [ATP] 100 µM; for remaining activity at 0.1 µM: 100 nM; for remaining activity at 0.1 µM / remaining activity at 0.5 µM: read-out: % Enzyme Activity (relative to DMSO controls)
Sequence of 363 human kinases (including Aurora A/B/C) (Homo sapiens, UniProt Q76MJ5) (Q76MJ5 35-926): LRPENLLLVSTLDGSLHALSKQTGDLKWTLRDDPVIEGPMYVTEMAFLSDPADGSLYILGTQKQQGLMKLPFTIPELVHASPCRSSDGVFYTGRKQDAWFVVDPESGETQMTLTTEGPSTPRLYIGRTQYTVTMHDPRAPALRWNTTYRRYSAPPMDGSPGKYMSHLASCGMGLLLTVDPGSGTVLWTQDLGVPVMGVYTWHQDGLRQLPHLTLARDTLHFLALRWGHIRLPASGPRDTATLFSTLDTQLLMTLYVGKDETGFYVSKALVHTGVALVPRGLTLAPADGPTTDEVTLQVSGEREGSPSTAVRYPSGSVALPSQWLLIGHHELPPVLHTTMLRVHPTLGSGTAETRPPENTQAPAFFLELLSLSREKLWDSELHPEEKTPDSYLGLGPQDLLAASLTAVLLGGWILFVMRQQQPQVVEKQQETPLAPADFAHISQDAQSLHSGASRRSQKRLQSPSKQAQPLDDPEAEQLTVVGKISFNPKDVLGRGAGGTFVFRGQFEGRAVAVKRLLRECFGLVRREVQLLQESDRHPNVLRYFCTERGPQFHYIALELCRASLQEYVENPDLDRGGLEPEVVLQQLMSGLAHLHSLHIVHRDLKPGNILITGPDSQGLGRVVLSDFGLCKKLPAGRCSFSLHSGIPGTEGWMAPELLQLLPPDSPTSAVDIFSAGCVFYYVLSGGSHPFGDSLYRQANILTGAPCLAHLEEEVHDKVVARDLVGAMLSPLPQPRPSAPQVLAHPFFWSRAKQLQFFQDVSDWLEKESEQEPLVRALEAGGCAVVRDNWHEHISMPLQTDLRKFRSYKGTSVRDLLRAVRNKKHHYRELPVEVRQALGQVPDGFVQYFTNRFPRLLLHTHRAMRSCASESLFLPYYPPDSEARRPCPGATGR
Source text: as §1

[7] = target: 363 human kinases (including Aurora A/B/C) (Homo sapiens, UniProt P49841); conditions: GSK3b; for remaining activity at 0.1 µM: 100 nM; for remaining activity at 0.1 µM / remaining activity at 0.5 µM: read-out: % Enzyme Activity (relative to DMSO controls)
Sequence of 363 human kinases (including Aurora A/B/C) (Homo sapiens, UniProt P49841) (P49841 whole entry): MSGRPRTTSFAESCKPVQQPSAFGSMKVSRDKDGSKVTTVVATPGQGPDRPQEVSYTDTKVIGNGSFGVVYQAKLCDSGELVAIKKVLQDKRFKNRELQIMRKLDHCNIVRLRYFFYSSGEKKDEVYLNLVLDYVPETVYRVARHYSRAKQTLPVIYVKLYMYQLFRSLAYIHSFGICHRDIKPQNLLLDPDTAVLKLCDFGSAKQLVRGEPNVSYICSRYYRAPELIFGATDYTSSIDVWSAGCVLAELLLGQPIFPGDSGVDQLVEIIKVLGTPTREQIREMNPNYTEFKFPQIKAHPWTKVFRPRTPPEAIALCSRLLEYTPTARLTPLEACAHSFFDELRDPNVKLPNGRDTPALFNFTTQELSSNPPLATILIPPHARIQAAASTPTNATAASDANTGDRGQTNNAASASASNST
Source text: as §1

[8] = target: 363 human kinases (including Aurora A/B/C) (Homo sapiens, UniProt P45983); conditions: JNK1; for remaining activity at 0.1 µM: 100 nM; for remaining activity at 0.1 µM / remaining activity at 0.5 µM: read-out: % Enzyme Activity (relative to DMSO controls)
Sequence of 363 human kinases (including Aurora A/B/C) (Homo sapiens, UniProt P45983) (P45983 whole entry): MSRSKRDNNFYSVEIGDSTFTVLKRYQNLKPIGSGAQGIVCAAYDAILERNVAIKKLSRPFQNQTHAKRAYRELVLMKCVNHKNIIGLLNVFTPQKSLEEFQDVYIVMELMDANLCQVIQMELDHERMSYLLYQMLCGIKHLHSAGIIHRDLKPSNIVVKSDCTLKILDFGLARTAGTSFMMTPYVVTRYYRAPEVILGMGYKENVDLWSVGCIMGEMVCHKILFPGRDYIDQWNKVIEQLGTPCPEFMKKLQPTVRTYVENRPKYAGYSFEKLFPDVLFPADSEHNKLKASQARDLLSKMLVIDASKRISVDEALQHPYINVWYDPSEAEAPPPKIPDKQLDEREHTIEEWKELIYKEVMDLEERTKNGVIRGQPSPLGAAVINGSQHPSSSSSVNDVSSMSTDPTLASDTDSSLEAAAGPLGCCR
Source text: as §1

[9] = target: 363 human kinases (including Aurora A/B/C) (Homo sapiens, UniProt P48729); conditions: CK1a1, [ATP] 20 µM; for remaining activity at 0.1 µM: 100 nM; for remaining activity at 0.1 µM / remaining activity at 0.5 µM: read-out: % Enzyme Activity (relative to DMSO controls)
Sequence of 363 human kinases (including Aurora A/B/C) (Homo sapiens, UniProt P48729) (P48729 whole entry): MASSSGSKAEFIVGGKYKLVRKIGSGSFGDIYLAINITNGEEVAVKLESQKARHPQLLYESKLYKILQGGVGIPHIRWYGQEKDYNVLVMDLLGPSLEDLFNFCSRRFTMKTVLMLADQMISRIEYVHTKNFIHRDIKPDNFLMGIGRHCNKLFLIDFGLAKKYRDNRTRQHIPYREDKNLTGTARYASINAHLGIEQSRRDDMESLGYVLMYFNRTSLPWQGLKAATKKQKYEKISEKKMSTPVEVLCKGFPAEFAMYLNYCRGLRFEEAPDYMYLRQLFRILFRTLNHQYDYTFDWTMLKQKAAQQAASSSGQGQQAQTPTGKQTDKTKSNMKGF
Source text: as §1

[10] = target: T2, 363 human kinases (including Aurora A/B/C) (Homo sapiens, UniProt O95382); conditions: MEKK6; for remaining activity at 0.1 µM: 100 nM; for remaining activity at 0.1 µM / remaining activity at 0.5 µM: read-out: % Enzyme Activity (relative to DMSO controls)
T2 sequence (O95382 1-1288): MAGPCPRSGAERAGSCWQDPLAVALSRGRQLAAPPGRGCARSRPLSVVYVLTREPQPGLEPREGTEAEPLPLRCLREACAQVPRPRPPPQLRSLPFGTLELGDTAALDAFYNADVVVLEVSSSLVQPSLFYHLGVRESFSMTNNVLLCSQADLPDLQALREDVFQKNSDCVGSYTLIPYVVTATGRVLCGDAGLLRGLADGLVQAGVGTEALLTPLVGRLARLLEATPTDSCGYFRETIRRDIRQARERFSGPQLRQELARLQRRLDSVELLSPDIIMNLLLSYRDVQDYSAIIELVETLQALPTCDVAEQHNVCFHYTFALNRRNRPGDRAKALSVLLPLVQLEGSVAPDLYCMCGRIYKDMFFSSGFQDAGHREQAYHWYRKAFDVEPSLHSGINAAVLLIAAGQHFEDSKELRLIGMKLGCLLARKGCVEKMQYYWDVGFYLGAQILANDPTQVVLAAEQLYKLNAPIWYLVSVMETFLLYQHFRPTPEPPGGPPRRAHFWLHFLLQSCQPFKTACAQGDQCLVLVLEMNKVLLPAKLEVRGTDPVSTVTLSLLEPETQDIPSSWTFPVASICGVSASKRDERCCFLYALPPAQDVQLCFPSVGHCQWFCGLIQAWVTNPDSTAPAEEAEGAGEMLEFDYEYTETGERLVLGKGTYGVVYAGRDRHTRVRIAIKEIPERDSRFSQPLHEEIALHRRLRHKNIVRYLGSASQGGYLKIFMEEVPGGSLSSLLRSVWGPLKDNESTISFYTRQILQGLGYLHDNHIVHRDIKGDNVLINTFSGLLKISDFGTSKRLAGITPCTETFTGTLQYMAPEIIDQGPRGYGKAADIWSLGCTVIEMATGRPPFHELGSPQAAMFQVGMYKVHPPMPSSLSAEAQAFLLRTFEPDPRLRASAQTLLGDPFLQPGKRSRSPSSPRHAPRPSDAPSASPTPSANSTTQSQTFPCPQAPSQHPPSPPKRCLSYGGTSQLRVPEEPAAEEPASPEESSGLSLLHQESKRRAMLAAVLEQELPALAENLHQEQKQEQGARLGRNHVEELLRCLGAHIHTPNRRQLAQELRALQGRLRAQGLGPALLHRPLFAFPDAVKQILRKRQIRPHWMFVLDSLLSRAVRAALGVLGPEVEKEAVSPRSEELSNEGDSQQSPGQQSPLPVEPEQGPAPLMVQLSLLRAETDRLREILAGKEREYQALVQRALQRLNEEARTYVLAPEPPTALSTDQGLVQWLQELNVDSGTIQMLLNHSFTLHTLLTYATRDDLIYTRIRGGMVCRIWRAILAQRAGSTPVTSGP
Source text: as §1

[11] = target: 363 human kinases (including Aurora A/B/C) (Homo sapiens, UniProt Q96GD4); conditions: for remaining activity at 0.1 µM / remaining activity at 0.5 µM: read-out: % Enzyme Activity (relative to DMSO controls)
Sequence of 363 human kinases (including Aurora A/B/C) (Homo sapiens, UniProt Q96GD4) (Q96GD4 whole entry): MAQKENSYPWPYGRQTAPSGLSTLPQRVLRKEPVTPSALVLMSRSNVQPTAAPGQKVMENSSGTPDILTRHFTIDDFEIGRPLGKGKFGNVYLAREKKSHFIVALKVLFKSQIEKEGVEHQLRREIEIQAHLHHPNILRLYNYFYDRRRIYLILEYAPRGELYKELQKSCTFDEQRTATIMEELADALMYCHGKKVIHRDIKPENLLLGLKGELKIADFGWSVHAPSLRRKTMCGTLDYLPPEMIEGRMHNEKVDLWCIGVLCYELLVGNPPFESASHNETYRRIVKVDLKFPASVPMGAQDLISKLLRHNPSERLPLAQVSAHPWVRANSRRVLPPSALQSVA
Source text: as §1

[12] = target: 363 human kinases (including Aurora A/B/C) (Homo sapiens, UniProt Q9P286); conditions: PAK5; for remaining activity at 0.1 µM: 100 nM; for remaining activity at 0.1 µM / remaining activity at 0.5 µM: read-out: % Enzyme Activity (relative to DMSO controls)
Source text: as §1

[13] = target: 363 human kinases (including Aurora A/B/C) (Homo sapiens, UniProt Q8IY84); conditions: NIM1; for remaining activity at 0.1 µM: 100 nM; for remaining activity at 0.1 µM / remaining activity at 0.5 µM: read-out: % Enzyme Activity (relative to DMSO controls)
Sequence of 363 human kinases (including Aurora A/B/C) (Homo sapiens, UniProt Q8IY84) (Q8IY84 whole entry): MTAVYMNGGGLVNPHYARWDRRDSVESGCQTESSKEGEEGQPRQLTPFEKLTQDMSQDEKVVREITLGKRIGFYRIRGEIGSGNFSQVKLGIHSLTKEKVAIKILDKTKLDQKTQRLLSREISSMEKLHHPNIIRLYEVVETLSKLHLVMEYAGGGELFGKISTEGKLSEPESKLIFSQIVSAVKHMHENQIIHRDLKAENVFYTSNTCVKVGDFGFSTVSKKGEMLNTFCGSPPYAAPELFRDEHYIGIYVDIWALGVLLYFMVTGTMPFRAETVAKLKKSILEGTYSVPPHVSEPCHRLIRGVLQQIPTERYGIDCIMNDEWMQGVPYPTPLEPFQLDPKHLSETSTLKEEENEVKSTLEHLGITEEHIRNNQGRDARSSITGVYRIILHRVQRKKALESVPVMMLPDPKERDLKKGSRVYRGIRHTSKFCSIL
Source text: as §1

Structure (SMILES) | remaining activity at 0.1 µM [1] | remaining activity at 0.1 µM [2] | remaining activity at 0.1 µM [3] | remaining activity at 0.1 µM [4] | remaining activity at 0.1 µM [5] | remaining activity at 0.1 µM [6] | remaining activity at 0.1 µM [7] | remaining activity at 0.1 µM [8] | remaining activity at 0.1 µM [9] | remaining activity at 0.1 µM [10] | remaining activity at 0.1 µM [11] | remaining activity at 0.1 µM [12] | remaining activity at 0.1 µM [13] | remaining activity at 0.5 µM ([1]; 500 nM) | remaining activity at 0.5 µM ([2]; 500 nM) | remaining activity at 0.5 µM ([3]; 500 nM) | remaining activity at 0.5 µM ([4]; 500 nM) | remaining activity at 0.5 µM ([5]; 500 nM) | remaining activity at 0.5 µM ([6]; 500 nM) | remaining activity at 0.5 µM ([7]; 500 nM) | other results
CCn1cc(-c2ccnc3[nH]c(-c4cccc(CN(C)C)c4)cc23)c(-c2ccc(NC(=O)N(C)C)cc2)n1 [GSK1070916] | 94.3% | 97.9% | 94.8% | 96.3% | 100% | 87.3% | 102% | 98% | 103% | 94.5% | 12.8% | 99.9% | 94.8% |  |  |  |  |  |  |  | 
O=C(O)[C@]1(Cc2cccc(Nc3nccs3)n2)CC[C@@H](Oc2cccc(Cl)c2F)CC1 [MK-5108] | 93% | 81.1% | 97.4% | 102% | 95.1% | 97% | 37.7% | 61.8% | 89% | 99.6% | 9.6% | 107% | 96.8% | 90.4% | 43.9% | 99.1% | 90.9% | 104% | 87.6% | 6.95% | remaining activity at 0.5 µM ([8]; 500 nM): 29.3%; remaining activity at 0.5 µM ([9]; 500 nM): 101%; remaining activity at 0.5 µM ([10]; 500 nM): 97.4%; remaining activity at 0.5 µM [11]: 2.85%; remaining activity at 0.5 µM ([12]; 500 nM): 78.1%; remaining activity at 0.5 µM ([13]; 500 nM): 96.4%
O=C(c1cccc(Cl)c1F)N1CCN(Cc2cccc(Nc3nccs3)n2)CC1 [MK-8745] |  |  |  |  |  |  |  |  |  |  |  |  |  | 93% | 66.7% | 98.6% | 95.8% | 94.5% | 94.5% | 29.6% | % Enzyme Activity (relative to DMSO controls) ([1]; 500 nM): 92.44%; % Enzyme Activity (relative to DMSO controls) ([2]; 500 nM): 65.00%; % Enzyme Activity (relative to DMSO controls) ([3]; 500 nM): 98.52%; % Enzyme Activity (relative to DMSO controls) ([4]; 500 nM): 94.27%; % Enzyme Activity (relative to DMSO controls) ([5]; 500 nM): 91.73%; % Enzyme Activity (relative to DMSO controls) ([6]; 500 nM): 93.54%; % Enzyme Activity (relative to DMSO controls) ([7]; 500 nM): 28.78%; % Enzyme Activity (relative to DMSO controls) ([8]; 500 nM): 13.45%; remaining activity at 0.5 µM ([8]; 500 nM): 13.8%; % Enzyme Activity (relative to DMSO controls) ([9]; 500 nM): 99.17%; remaining activity at 0.5 µM ([9]; 500 nM): 99.8%; % Enzyme Activity (relative to DMSO controls) ([10]; 500 nM): 83.68%; remaining activity at 0.5 µM ([10]; 500 nM): 87.7%; % Enzyme Activity (relative to DMSO controls) ([11]; Aurora B, [ATP] 100 µM, 500 nM): 59.14%; remaining activity at 0.5 µM ([11]; Aurora B, [ATP] 100 µM, 500 nM): 62.3%; % Enzyme Activity (relative to DMSO controls) ([12]; 500 nM): 92.01%; remaining activity at 0.5 µM ([12]; 500 nM): 103%; % Enzyme Activity (relative to DMSO controls) ([13]; 500 nM): 97.14%; remaining activity at 0.5 µM ([13]; 500 nM): 97.2%
